{
  "source": "patent US20230104358A1",
  "about": "(priority 2021, published 2023)",
  "origin": "cited, not measured here",
  "key": {"serotonin 5HT1D receptor": {"biological_target": "serotonin 5HT1D receptor (Homo sapiens, UniProt P28221)", "sequence (P28221 whole entry)": "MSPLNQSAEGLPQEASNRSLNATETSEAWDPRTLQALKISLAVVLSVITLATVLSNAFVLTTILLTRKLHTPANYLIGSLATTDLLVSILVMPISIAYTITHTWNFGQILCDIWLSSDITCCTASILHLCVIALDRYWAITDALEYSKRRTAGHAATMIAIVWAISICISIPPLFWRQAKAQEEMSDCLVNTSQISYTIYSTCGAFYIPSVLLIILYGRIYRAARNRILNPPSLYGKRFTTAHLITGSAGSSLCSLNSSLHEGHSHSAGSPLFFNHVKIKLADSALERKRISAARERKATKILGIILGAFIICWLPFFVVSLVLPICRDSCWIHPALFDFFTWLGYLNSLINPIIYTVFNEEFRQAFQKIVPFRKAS"}, "[1]": {"biological_target": "dopamine Type 2 (D2) receptor (Homo sapiens, UniProt P14416)", "sequence (P14416 whole entry)": "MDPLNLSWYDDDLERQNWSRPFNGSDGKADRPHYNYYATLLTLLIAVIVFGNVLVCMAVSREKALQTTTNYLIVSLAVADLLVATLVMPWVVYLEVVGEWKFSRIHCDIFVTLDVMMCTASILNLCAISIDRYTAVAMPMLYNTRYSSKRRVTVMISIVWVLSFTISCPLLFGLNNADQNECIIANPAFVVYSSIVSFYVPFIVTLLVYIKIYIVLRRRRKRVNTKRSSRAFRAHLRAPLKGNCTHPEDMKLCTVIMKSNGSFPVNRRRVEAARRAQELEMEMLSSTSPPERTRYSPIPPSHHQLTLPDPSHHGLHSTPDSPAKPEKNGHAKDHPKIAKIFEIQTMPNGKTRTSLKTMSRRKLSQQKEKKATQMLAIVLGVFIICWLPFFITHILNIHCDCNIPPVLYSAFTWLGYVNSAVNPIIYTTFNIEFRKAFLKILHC"}, "serotonin 5HT1C receptor": {"biological_target": "T1, serotonin 5HT1C receptor (Homo sapiens, UniProt P28335)", "T1 sequence (P28335 33-458)": "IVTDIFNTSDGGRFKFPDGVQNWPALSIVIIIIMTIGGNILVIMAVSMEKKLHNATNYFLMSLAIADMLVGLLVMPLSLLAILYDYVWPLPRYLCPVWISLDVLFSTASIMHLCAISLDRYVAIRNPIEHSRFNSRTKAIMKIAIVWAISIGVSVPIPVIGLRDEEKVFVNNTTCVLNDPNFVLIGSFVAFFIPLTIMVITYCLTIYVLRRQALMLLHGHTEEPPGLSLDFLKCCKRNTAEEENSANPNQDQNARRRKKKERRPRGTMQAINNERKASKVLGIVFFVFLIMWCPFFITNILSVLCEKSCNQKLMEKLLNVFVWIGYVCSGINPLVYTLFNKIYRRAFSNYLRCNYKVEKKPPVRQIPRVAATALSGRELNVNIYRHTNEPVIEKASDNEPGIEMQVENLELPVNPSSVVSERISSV"}, "β1 adrenergic receptor": {"biological_target": "β1 adrenergic receptor (Homo sapiens, UniProt P08588)", "sequence (P08588 whole entry)": "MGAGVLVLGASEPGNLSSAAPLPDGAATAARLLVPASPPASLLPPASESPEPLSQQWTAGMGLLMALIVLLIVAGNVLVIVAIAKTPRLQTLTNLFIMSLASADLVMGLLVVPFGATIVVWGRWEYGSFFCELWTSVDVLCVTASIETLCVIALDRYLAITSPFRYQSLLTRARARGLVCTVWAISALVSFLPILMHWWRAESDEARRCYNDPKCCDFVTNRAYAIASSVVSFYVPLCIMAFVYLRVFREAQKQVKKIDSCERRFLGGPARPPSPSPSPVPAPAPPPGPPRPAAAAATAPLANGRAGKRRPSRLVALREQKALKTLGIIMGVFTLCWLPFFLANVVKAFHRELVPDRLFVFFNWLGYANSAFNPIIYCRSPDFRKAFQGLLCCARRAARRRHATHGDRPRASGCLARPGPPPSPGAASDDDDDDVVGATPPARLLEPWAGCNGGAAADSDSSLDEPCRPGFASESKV"}, "dopamine D1": {"biological_target": "dopamine D1 (Homo sapiens, UniProt P21728)", "sequence (P21728 whole entry)": "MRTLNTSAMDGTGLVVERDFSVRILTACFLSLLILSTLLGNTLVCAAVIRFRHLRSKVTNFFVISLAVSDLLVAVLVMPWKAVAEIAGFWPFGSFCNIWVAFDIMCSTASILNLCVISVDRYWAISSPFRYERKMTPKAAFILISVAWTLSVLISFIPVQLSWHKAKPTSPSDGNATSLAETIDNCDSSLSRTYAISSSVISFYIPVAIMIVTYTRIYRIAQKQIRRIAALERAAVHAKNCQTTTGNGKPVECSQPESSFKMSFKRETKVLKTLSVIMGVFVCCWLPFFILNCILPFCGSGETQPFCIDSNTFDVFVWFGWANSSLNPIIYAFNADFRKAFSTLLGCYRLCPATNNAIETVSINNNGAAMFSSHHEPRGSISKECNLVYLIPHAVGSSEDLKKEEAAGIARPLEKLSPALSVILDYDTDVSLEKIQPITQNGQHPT"}, "[2]": {"test_system": "haloperidol-sensitive sigma site"}, "serotonin 5HT1A receptor": {"biological_target": "T2, serotonin 5HT1A receptor (Homo sapiens, UniProt P08908)", "T2 sequence (P08908 1-422)": "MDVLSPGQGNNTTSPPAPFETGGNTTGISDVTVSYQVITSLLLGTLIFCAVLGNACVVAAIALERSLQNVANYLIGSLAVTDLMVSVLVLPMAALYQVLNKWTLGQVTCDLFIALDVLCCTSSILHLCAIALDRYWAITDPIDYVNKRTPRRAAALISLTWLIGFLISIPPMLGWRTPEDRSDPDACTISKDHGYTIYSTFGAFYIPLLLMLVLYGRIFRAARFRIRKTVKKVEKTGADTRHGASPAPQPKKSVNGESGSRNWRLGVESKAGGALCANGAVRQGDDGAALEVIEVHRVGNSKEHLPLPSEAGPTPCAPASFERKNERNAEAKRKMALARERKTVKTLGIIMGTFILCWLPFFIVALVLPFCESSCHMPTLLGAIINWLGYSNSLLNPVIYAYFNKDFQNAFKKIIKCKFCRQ"}, "β2 adrenergic receptor": {"biological_target": "β2 adrenergic receptor (Homo sapiens, UniProt P07550)", "sequence (P07550 whole entry)": "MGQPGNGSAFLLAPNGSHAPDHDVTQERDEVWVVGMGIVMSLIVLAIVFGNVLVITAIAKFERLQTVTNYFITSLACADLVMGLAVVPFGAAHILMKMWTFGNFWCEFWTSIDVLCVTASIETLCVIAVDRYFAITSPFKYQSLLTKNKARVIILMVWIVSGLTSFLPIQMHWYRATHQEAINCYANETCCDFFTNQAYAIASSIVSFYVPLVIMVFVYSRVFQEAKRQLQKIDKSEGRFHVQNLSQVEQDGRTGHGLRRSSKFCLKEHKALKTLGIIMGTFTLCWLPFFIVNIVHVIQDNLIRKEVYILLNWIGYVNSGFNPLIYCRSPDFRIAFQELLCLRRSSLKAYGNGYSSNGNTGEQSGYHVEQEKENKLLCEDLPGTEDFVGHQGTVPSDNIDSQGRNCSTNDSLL"}},
  "data": [
    {"smiles": "Cc1nc2n(c(=O)c1CCN1CCC(c3noc4cc(F)ccc34)CC1)CCCC2", "note": "[Risperidone]", "values": [
      {"measurement": "affinity for serotonin 5HT1D receptor", "setting": "serotonin 5HT1D receptor", "result": "low to moderate affinity"},
      {"measurement": "affinity for dopamine Type 2 (D2) receptor", "setting": "[1]", "result": "high affinity"},
      {"measurement": "affinity for α1 adrenergic receptor", "setting": "α1 adrenergic receptor", "result": "high affinity"},
      {"measurement": "affinity for serotonin 5HT1C receptor", "setting": "serotonin 5HT1C receptor", "result": "low to moderate affinity"},
      {"measurement": "affinity for β1 adrenergic receptor", "setting": "β1 adrenergic receptor", "result": "no affinity"},
      {"measurement": "affinity for dopamine D1", "setting": "dopamine D1", "result": "weak affinity"},
      {"measurement": "affinity for haloperidol-sensitive sigma site", "setting": "[2]", "result": "weak affinity"},
      {"measurement": "affinity for serotonin 5HT1A receptor", "setting": "serotonin 5HT1A receptor", "result": "low to moderate affinity"},
      {"measurement": "affinity for α2 adrenergic receptor", "setting": "α2 adrenergic receptor", "result": "high affinity"},
      {"measurement": "affinity for β2 adrenergic receptor", "setting": "β2 adrenergic receptor", "result": "no affinity"}
    ]}
  ]
}
